What was measured:
[1] = biological target: T1, MsepOR13/Orco (MsepOR13/MsepOrco) (Mythimna separata, UniProt A0A650FIP0); assay: two-electrode voltage clamp, Xenopus oocytes, single concentration; format: cell-based; conditions: MsepOrco co-expressed; holding potential -80 mV; 15 s exposure at 10^-4 M; agonist
T1 construct: gene OR13; full-length untagged MsepOR13, 408 aa (ORF 1227 bp), cloned from adult antennal cDNA; pT7Ts cRNA, Xenopus oocytes; with Odorant receptor coreceptor
T1 sequence (A0A650FIP0 1-408): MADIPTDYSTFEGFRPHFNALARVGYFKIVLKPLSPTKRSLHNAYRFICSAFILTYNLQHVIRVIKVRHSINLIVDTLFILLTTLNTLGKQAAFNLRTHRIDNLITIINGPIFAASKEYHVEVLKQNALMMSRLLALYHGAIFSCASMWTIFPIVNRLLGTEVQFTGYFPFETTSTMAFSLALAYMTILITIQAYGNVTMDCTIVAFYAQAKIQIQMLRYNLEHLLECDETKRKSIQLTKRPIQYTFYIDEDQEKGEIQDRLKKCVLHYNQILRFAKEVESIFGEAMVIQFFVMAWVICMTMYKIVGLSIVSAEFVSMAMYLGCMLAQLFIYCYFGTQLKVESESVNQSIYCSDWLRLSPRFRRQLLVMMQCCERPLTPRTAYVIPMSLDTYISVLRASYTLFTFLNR
T1 sequence (B5MEJ5 1-473 partner): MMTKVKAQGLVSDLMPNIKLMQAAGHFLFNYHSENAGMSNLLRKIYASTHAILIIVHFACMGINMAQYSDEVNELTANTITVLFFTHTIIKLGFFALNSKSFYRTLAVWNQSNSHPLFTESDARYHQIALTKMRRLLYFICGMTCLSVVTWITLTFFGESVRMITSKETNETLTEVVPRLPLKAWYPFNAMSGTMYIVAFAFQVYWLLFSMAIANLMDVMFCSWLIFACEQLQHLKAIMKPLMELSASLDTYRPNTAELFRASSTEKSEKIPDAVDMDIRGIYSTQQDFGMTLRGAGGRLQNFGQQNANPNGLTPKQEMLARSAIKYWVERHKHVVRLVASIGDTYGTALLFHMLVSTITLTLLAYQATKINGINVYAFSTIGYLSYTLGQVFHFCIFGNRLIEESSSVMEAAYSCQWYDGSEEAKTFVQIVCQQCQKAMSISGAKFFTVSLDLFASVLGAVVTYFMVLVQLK

[2] = biological target: T1, MsepOR13/Orco (MsepOR13/MsepOrco); assay: two-electrode voltage clamp, Xenopus oocytes, dose-response; format: cell-based

Structure (SMILES)	current response at 10^-4 M [1]	EC50 [2]
CC(=O)c1ccccc1 [Acetophenone]	523.3 nA	–
C=CCc1ccc(OC)c(OC)c1 [Methyl eugenol]	~ 1655 nA	–
CCCCCCO [1-Hexanol]	60 nA	–
C=CCc1ccc(O)c(OC)c1 [Eugenol]	–	3.91 µM

— article PMC6465334, “Functional Analysis of MsepOR13 in the Oriental Armyworm Mythimna separata (Walker)” (Frontiers in Physiology, 2019)
